Measurements as given in US10369105B2, “Nanoparticulate compositions for targeted delivery of acid labile, lipophilic prodrugs of cancer chemotherapeutics and their preparation” (Veiled Therapeutics LLC, priority 2014, dated 2019).

Experiments:
[1] = test system: human MDA-MB-231 mammary tumor xenografts; assay: MTD/tolerability and efficacy study ATL-2, IV Q1Dx5, tumored mice
Description: (§1) MTD study consisted of two major phases:
(§2) Material remaining from the dosing emulsion solutions was shipped back to Arbor Therapeutics after the end of the treatment phase. […] The assessment of returned material was carried out side by side with material retained.
(§3) Paclitaxel was included as a reference compound. • Tumor Model:
[…] All treatments were administered intravenously (IV) once a day for five consecutive days (Q1Dx5) beginning on Day 1.
(§4) Animals in Group 5 (Emulsion control) were treated with a drug free formulation (injection volume of 0.21 mL/20 g of body weight).

[2] = MTD/tolerability study ATL-1, IV Q1Dx5, nontumored mice
Description: as §1, §2, §3
The studies ATL-1 and ATL-2 consisted each of six groups of five nontumored mice per group for a total of 30 mice on Day 1, the first day of treatment. All treatments were administered intravenously (IV) once a day for five consecutive days (Q1Dx5) beginning on Day 1.
as §4

[3] = PK/PD study ATL-4: plasma and tissue concentrations after single IV injection, nontumored mice; format: in vivo, female athymic NCr-nu/nu mice; conditions: paclitaxel 18.9 mg/kg single IV
Description: Tumor Model; Experiment ATL-4. Animals were nontumored.
Experiment ATL-4: The study consisted of ten groups of three nontumored mice per group for a total of 30 mice on Day 1, one day before the treatment. All treatments were administered as a single IV injection on Day 2.

[4] = test system: human MDA-MB-231 mammary tumor xenografts; assay: Antitumor efficacy study ATL-3, IV Q1Dx5 and Q4Dx3; format: in vivo, human tumor in female athymic NCr-nu/nu mice; conditions: for complete tumor regressions: ten mice
Description: Experiment ATL-3 was performed to evaluate the antitumor activity of the intravenous (IV) treatment with formulated ART-207 when administered on two different schedules to female, athymic NCr-nu/nu mice implanted subcutaneously (SC) with human MDA-MB-231 mammary tumor xenografts. Paclitaxel was included as a reference compound. • Tumor Model:
Individual tumors of 90 animals grew to 88-216 mg in weight (88-216 mm3 in size) on Day 10 after tumor fragments implantation, the day of treatment initiation. […] The time points are indicated starting from the first day of treatment with formulated ART-207, vehicle control and Paclitaxel. • Study Design: […]
Animals in Groups 2, 3, and 4 were treated with formulated ART-207 which was administered IV on a Q1Dx5 schedule starting on Day 0 (Days 0-4) at doses of 105.2, 78.9, and 52.6 mg/kg/injection, respectively. Animals in Group 5 (Emulsion control) were treated IV on Q1Dx5 schedule starting on Day 0 with a drug free formulation. […] Animals in Group 7 were treated with formulated ART-207 which was administered IV once every four days for a total of three injections (Q4Dx3) starting on Day 0 (Days 0, 4, and 8) at a dose of 78.9 mg/kg/injection. Animals in Group 8 (Emulsion control) were treated IV on a Q4Dx3 schedule starting on Day 0 with a drug free formulation. Animals in Group 9 were treated IV on a Q4Dx3 schedule starting on Day 0 with paclitaxel at a dose of 18.9 mg/kg/injection.

[5] = breast cancer patients; cited from earlier work
[6] = IV Q1Dx5, formulated ART-207 72.6, 47.1, 35.7 and 23.7 mg/kg/injection, paclitaxel 15 mg/kg/injection
[7] = Study # 1, tumor size 270 mg, Q1Dx5, dose 15 mpk
[8] = Study # 2, tumor size 150 mg, Q1Dx5, dose 15 mpk
[9] = paclitaxel 15 mg/kg/injection IV Q1Dx5 (Group 6)
[10] = paclitaxel 18.9 mg/kg/injection IV Q4Dx3 (Group 9)

CC(=O)O[C@H]1C(=O)[C@@]2(C)[C@H]([C@H](OC(=O)c3ccccc3)[C@]3(O)C[C@H](OC(=O)[C@H](O)[C@@H](NC(=O)c4ccccc4)c4ccccc4)C(C)=C1C3(C)C)[C@]1(OC(C)=O)CO[C@@H]1C[C@@H]2O [Paclitaxel]
maximum tolerated dose (MTD) ([1]; IV Q1Dx5, tumored mice): below 15 mg/kg/injection | tolerability / deaths (in words) [1, 6]: toxic | animals died before day 11 ([1]; Paclitaxel 15 mg/kg IV Q1Dx5, day 0 = first treatment): 4 of 5 | Survival rate (end of study) [1, 7]: 20% | Tumor free mice (end of study) [1, 7]: 0% | animals euthanized due to being moribund ([1]; paclitaxel 15 mg/kg/injection IV Q1Dx5, Days 20 and 21): two | deaths ([1]; paclitaxel 15 mg/kg/injection IV Q1Dx5, both deaths on Day 19): two out of five | tumor weight of the surviving animal ([1]; paclitaxel 15 mg/kg/injection, Day 13): 180 mg | tumor weight of the surviving animal ([1]; paclitaxel 15 mg/kg/injection, Day 47): 32 mg | maximum tolerated dose (MTD) ([2]; IV Q1Dx5, nontumored mice, no death or more than 20% body weight loss within 14 days of end of treatment): above 15 mg/kg/injection | tolerability / deaths (in words) [2, 6]: tolerated without deaths | AUC(0-t) ([3]; female, athymic NCr-nu/nu, mouse, plasma, read-out: AUClast for paclitaxel in plasma): 37700 ng·h/mL | half-life ([3]; female, athymic NCr-nu/nu, mouse, plasma, read-out: apparent terminal elimination half-life of paclitaxel in plasma (converted)): 1 h | clearance ([3]; female, athymic NCr-nu/nu, mouse, plasma, read-out: total body clearance of paclitaxel (converted)): 8.33 mL/min/kg | Vd ([3]; female, athymic NCr-nu/nu, mouse, plasma, read-out: volume of distribution of paclitaxel at steady state): 0.658 L/kg | mean peak plasma concentration of paclitaxel ([3]; at 5 minutes (0.083 hours)): 32.9 µg/mL | Survival rate (end of study) [4, 8]: 40% | Tumor free mice (end of study) [4, 8]: 40% | animals tumor-free on Day 56 [4, 9]: four | median tumor growth delay [4, 9]: 31.8 days | deaths ([4]; paclitaxel 15 mg/kg/injection IV Q1Dx5 (Group 6), Day 2): one out of ten | animals euthanized due to ataxia ([4]; paclitaxel 15 mg/kg/injection IV Q1Dx5 (Group 6), Day 12): One | complete tumor regressions [4, 9]: five | tolerability / deaths (in words) [4, 10]: tolerated without deaths or mean body weight loss | complete tumor regressions [4, 10]: one | half-life (t1/2) [5]: 3.5 ± 0.80 h
